What was measured:
[1] = molecular target: T1, ITK (Jurkat or Molt4 cells) (Homo sapiens, UniProt Q08881); assay: ITK Degradation MSD (Meso Scale Discovery) Assay; type: cell-based; conditions: 4 or 6 hrs incubation; for DC50: best fit IC50 used as DC50
T1 construct: either human Jurkat (Clone E6-1 ATCC TIB-152) or Motl4 (ATCC CRL-1552), were plated; endogenous in cells; host or cells: Jurkat Clone E6-1 (ATCC TIB-152) or Molt4 (ATCC CRL-1552)
T1 sequence (Q08881 1-620): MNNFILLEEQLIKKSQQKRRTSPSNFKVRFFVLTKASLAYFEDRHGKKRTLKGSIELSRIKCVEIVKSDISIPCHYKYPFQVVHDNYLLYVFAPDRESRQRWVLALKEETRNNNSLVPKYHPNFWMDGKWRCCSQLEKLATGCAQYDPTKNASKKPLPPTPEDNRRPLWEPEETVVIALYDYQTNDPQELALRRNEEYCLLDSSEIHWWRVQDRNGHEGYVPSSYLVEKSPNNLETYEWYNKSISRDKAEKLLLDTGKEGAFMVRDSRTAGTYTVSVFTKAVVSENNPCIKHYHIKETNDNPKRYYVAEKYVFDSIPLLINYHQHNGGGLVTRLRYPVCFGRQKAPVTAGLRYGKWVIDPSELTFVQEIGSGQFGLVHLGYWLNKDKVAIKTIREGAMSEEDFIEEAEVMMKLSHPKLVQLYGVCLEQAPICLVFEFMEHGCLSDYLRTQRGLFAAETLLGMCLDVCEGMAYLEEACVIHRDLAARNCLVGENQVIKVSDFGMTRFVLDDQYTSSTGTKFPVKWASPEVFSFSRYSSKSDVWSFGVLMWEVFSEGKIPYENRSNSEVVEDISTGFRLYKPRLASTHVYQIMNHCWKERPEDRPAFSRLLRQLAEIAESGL
Summary of the method: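 Jurkat or Molt4 cells at 1×10^6 cells/mL in RPMI/10% FBS treated 4 or 6 hr at 32° C with 7-point, 5-fold compound dilutions (0.5% DMSO). Lysate ITK quantified by MSD sandwich ECL immunoassay; % ITK remaining fitted by four-parameter curve, IC50 taken as DC50, plus Dmax.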

[2] = Mouse PK analysis, plasma concentration by LC/MS/MS after oral administration; type: in vivo; conditions: mice; for concentration at 2 h: timepoint 2 h; for concentration at 6 h: timepoint 6 h
Protocol: Mouse PK Analysis Compounds 17 and 18 were administered to mice orally. After six hours or twenty-four hours, splenocyte cells were harvested. ITK was evaluated by Western blotting. Plasma concentrations were determined by LC/MS/MS. Plasma samples were protein precipitated by addition of 100 μl of acetonitrile containing 50 ng/ml of internal standard. The resulting mixture was vortexed and centrifuged at 4000 rpm for five minutes. An aliquot of the resultant supernatant (75 μl) was added to 75 μl of 0.1% formic acid in water to constitute the final sample for injection. Samples were injected on a Shimadzu Exion LC Binary Gradient AD Pump HLPC system connected to a Sciex QTRAP 6500+ mass spectrometer. 5 μL of sample was injected onto a Waters Acquity UPLC BEH C18 column 130A (2.1×30 mm, […]) at 40° C. utilizing a flow rate of 700 μL/minute.
Mobile Phase A was 0.1% formic acid in water and mobile phase B was 0.1% formic acid in acetonitrile. A linear gradient of 15-95% B over 1.0 minute was used. The mass spectrometer was operated in positive ion electrospray mode with multiple reaction monitoring for maximum sensitivity. Sciex Analyst software (version 1.6.3) was used for LC/MS/MS instrument control and acquisition. Compound concentration was determined against a standard curve of internal standard versus compound peak area ratio. Noncompartmental PK parameters were determined using Phoenix 32 software (version 8.2.0.4383) from Certara. Plasma concentrations from the LC/MS/MS analyses, dose, route of administration, and desired units were utilized for PK parameter calculations.

Row | Dmax [1] | DC50 [1] | concentration at 2 h [2] | concentration at 6 h [2] | Structure (SMILES)
1 | 95.7% | 4.51 nM | 1.8 nM | 4.5 nM | Cc1ncsc1-c1ccc(CNC(=O)[C@@H]2C[C@@H](O)CN2C(=O)[C@@H](NC(=O)C2(F)CC2)C(C)(C)C)c(OCCOCCC(=O)N2CC([C@@H](c3ccccc3)n3cc(NC(=O)c4n[nH]c5c4C[C@@H]4C(F)(F)[C@]4(C)C5)cn3)C2)c1 [Compound 17, (4aS,5aR)-5,5-difluoro-N-(1-((S)-(1-(3-(2-(2-(((2S,4R)-1-((S)-2-(1-fluorocyclopropane-1-carboxamido)-3,3-dimethylbutanoyl)-4-hydroxypyrrolidine-2-carboxamido)methyl)-5-(4-methylthiazol-5-yl)phenoxy)ethoxy)propanoyl)azetidin-3-yl)(phenyl)methyl)-1H-pyrazol-4-yl)-5a-methyl-1,4,4a,5,5a,6-hexahydrocyclopropa[f]indazole-3-carboxamide]
2 | 95.1% | 1.47 nM | 6.1 nM | 16.2 nM | Cc1ncsc1-c1ccc(CNC(=O)[C@@H]2C[C@@H](O)CN2C(=O)[C@@H](NC(=O)C2(F)CC2)C(C)(C)C)c(OCCCCCC(=O)N2CC([C@@H](c3ccccc3)n3cc(NC(=O)c4n[nH]c5c4C[C@@H]4C(F)(F)[C@]4(C)C5)cn3)C2)c1 [Compound 18, (4aS,5aR)-5,5-difluoro-N-(1-((S)-(1-(6-(2-(((2S,4R)-1-((S)-2-(1-fluorocyclopropane-1-carboxamido)-3,3-dimethylbutanoyl)-4-hydroxypyrrolidine-2-carboxamido)methyl)-5-(4-methylthiazol-5-yl)phenoxy)hexanoyl)azetidin-3-yl)(phenyl)methyl)-1H-pyrazol-4-yl)-5a-methyl-1,4,4a,5,5a,6-hexahydrocyclopropa[f]indazole-3-carboxamide]
